This note sets out measurements from US8846947B2, “Benzimidazoles and related analogs as sirtuin modulators” (GlaxoSmithKline LLC, priority 2008, dated 2014).

The experiment addresses T1, SIRT1 (Homo sapiens, UniProt Q96EB6).
T1 sequence (Q96EB6 1-747): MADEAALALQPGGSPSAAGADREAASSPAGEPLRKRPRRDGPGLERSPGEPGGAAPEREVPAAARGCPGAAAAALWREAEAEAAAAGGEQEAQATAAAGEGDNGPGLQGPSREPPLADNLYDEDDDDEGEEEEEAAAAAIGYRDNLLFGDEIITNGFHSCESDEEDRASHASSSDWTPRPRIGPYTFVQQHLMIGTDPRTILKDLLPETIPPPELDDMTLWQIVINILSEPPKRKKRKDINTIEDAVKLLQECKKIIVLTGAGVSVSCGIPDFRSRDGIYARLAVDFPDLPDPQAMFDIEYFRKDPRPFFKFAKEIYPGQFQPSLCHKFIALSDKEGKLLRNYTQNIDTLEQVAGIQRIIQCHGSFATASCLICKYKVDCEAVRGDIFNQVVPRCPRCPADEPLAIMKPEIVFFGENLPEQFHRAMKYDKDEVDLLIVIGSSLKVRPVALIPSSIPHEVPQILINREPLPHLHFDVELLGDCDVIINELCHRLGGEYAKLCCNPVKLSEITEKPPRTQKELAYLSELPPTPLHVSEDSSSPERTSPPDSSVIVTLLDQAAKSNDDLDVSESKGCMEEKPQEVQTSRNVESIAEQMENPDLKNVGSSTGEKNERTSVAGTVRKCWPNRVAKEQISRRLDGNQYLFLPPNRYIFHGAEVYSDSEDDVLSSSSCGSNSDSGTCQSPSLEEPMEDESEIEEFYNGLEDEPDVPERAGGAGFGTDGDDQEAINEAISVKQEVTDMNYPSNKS
Description: Mass spectrometry based SIRT1 deacetylase activation assay (acetylated p53-derived peptide substrate). The class given is biochemical.

[1] abbreviates: 0.5 μM peptide substrate, 120 μM βNAD+, 10 nM SIRT1, 25 minutes at 25° C.
Setting [2] is: 0.5 μM peptide substrate, 120 μM βNAD+, 10 nM SIRT1, 25 min at 25° C.
Setting [3] is: 0.5 μM peptide substrate, 120 μM βNAD+, 10 nM SIRT1, 25 min at 25° C., read-out: EC1.5.

Read-outs that look alike come from different tables or passages of the source.

`Cc1cc(C)nc(NC(=O)c2cccc3[nH]c(-c4ccc(Cl)cc4C(F)(F)F)nc23)c1` [Compound 394]: the EC1.5 result is recorded as “A (EC1.5<1.0 uM)” and the “Fold Act. (percent maximum fold activation)” value is listed as “A (Fold activation >200%)”.

In the case of `O=C(Nc1ccccn1)c1cccc2[nH]c(-c3ccc(N4CC[C@H](F)C4)cc3C(F)F)nc12` [Compound 733], under setting [1], the EC1.5 entry was “A (EC1.5<1.0 uM)” and the “Fold Act. (percent maximum fold activation)” value is “A (Fold activation >200%)”.

As for `O=C(Nc1nccs1)c1cccc2[nH]c(-c3ccc(-c4ccccc4)cc3)nc12` [Compound 223], the EC1.5 result is given as “C (EC1.5 >25 uM)” and the “Fold Act. (percent maximum fold activation)” value is reported as “B (Fold Activation <200%)”.

With `Cc1cnc(NC(=O)c2cccc3[nH]c(-c4cccc5c4OC(F)(F)O5)nc23)s1` [Compound 532], the “Fold Act. (percent maximum fold activation)” value under setting [2] was “A (Fold activation >200%)”. Also, the EC1.5 under setting [3] was below 1000 nM.

With `O=C(Nc1ccccn1)c1cccc2[nH]c(-c3cc(F)cc(Cl)c3OCCN3CCOCC3)nc12` [Compound 544], the “Fold Act. (percent maximum fold activation)” value under setting [2] was “B (Fold Activation <200%)”. In addition, the EC1.5 under setting [3] was in the range of 1000 to 25000 nM.

In the case of `CC1(C)Cc2cccc(-c3nc4c(C(=O)Nc5nccs5)cccc4[nH]3)c2O1` [Compound 383], the EC1.5 result is given as “B (EC1.5 1-25 uM)” and the “Fold Act. (percent maximum fold activation)” value is listed as “B (Fold Activation <200%)”.

On to `O=C1COc2ccc(-c3nc4c(C(=O)Nc5cccnc5)cccc4[nH]3)cc2N1` [Compound 533], for which the “Fold Act. (percent maximum fold activation)” value under setting [2] was “B (Fold Activation <200%)”. Moreover, the EC1.5 under setting [3] was above 25000 nM.

For the compound `CS(=O)(=O)c1ccc(-c2nc3c(C(=O)Nc4nccs4)cccc3[nH]2)cc1` [Compound 405], the “Fold Act. (percent maximum fold activation)” value under setting [2] is reported as “B (Fold Activation <200%)”. Moreover, the EC1.5 under setting [3] was in the range of 1000 to 25000 nM.

As to `O=C(Nc1nccs1)c1cc(F)cc2nc(-c3ccc(F)cc3C(F)F)[nH]c12` [Compound 824], under setting [1], the EC1.5 result is on record as “A (EC1.5<1.0 uM)” and the “Fold Act. (percent maximum fold activation)” value is given as “A (Fold activation >200%)”.

`CC(C)(C)c1ccc(OCCN2CCOCC2)c(-c2nc3c(C(=O)Nc4nccs4)cccc3[nH]2)c1` [Compound 547]: the “Fold Act. (percent maximum fold activation)” value under setting [2] is listed as “B (Fold Activation <200%)”. The EC1.5 under setting [3] is 1000 to 25000 nM.

Regarding `Cc1cc(NC(=O)c2cccc3[nH]c(-c4ccc(N5CCOCC5)cc4C(F)(F)F)nc23)n(C)n1` [Compound 592], the “Fold Act. (percent maximum fold activation)” value under setting [2] is recorded as “A (Fold activation >200%)”. Besides, the EC1.5 under setting [3] is below 1000 nM.

Consider `O=C(Nc1ccccn1)c1cccc2[nH]c(-c3ccccc3OCCN3CC[C@H](F)C3)nc12` [Compound 510], for which, under setting [2], the “Fold Act. (percent maximum fold activation)” value was “B (Fold Activation <200%)”. Moreover, under setting [3], the EC1.5 lay in the range of 1000 to 25000 nM.

For the compound `Cc1cnc(NC(=O)c2cccc3[nH]c(-c4cc(F)ccc4C(F)(F)F)nc23)s1` [Compound 376], the EC1.5 entry is given as “A (EC1.5<1.0 uM)” and the “Fold Act. (percent maximum fold activation)” value is “A (Fold activation >200%)”.

In the case of `O=C(Nc1cccc2[nH]c(-c3cccc(N4CCOCC4)c3)nc12)c1cscn1` [Compound 391], the EC1.5 result was “B (EC1.5 1-25 uM)” and the “Fold Act. (percent maximum fold activation)” value is listed as “A (Fold activation >200%)”.

Turning to `CS(=O)(=O)c1cccc(-c2nc3c(C(=O)Nc4ccccn4)cccc3[nH]2)c1` [Compound 403], under setting [2], the “Fold Act. (percent maximum fold activation)” value was “A (Fold activation >200%)”. The EC1.5 under setting [3] fell in the range of 1000 to 25000 nM.

As for `Cc1cnc(NC(=O)c2cncc3[nH]c(-c4ccccc4C(F)(F)F)nc23)s1` [Compound 639], under setting [1], the EC1.5 entry was “A (EC1.5<1.0 uM)” and the “Fold Act. (percent maximum fold activation)” value is “A (Fold activation >200%)”.

On to `Cn1ccc(-c2nc3c(C(=O)Nc4nccs4)cccc3[nH]2)n1` [Compound 303], for which the EC1.5 result was “B (EC1.5 1-25 uM)” and the “Fold Act. (percent maximum fold activation)” value is given as “A (Fold activation >200%)”.

On to `O=C(Nc1cccc(OCC(O)CO)c1)c1cccc2[nH]c(-c3cc(F)ccc3C(F)(F)F)nc12` (stereo not shown) [Compound 741], for which, under setting [1], the EC1.5 result was “A (EC1.5<1.0 uM)” and the “Fold Act. (percent maximum fold activation)” value is “A (Fold activation >200%)”.

With `O=C(Nc1ccccn1)c1cccc2[nH]c(-c3ccc(OC4CCNCC4)cc3)nc12` [Compound 535], under setting [2], the “Fold Act. (percent maximum fold activation)” value was “A (Fold activation >200%)”. In addition, the EC1.5 under setting [3] was below 1000 nM.

On to `O=C(NC1CCNCC1)c1cccc2[nH]c(-c3ccc(Cl)cc3C(F)(F)F)nc12` [Compound 453], for which the “Fold Act. (percent maximum fold activation)” value under setting [2] was “B (Fold Activation <200%)”. The EC1.5 under setting [3] is above 25000 nM.

On to `O=C(Nc1cccc(OC[C@H](O)CO)c1)c1cccc2[nH]c(-c3cc(F)cc(F)c3)nc12` [Compound 786], for which, under setting [1], the EC1.5 result is recorded as “A (EC1.5<1.0 uM)” and the “Fold Act. (percent maximum fold activation)” value is on record as “A (Fold activation >200%)”.

With `O=C(Nc1nccs1)c1cccc2[nH]c(-c3cccnc3Cl)nc12` [Compound 245], the EC1.5 entry is on record as “B (EC1.5 1-25 uM)” and the “Fold Act. (percent maximum fold activation)” value was “A (Fold activation >200%)”.

For the compound `Cc1cc(NC(=O)c2cccc3[nH]c(-c4ccnn4-c4ccccc4)nc23)no1` [Compound 466], the “Fold Act. (percent maximum fold activation)” value under setting [2] is listed as “A (Fold activation >200%)”. Under setting [3], the EC1.5 was in the range of 1000 to 25000 nM.

As for `O=C(Nc1cccc[n+]1[O-])c1cccc2[nH]c(-c3ccccc3C(F)(F)F)nc12` [Compound 329, 2-(2-(2-(trifluoromethyl)phenyl)-1H-benzo[d]imidazole-4-carboxamido)pyridine 1-oxide], the EC1.5 result is listed as “B (EC1.5 1-25 uM)” and the “Fold Act. (percent maximum fold activation)” value is “A (Fold activation >200%)”.

Turning to `O=C(Nc1nccs1)c1cccc2[nH]c(-c3cccc(F)c3)nc12` [Compound 212], the EC1.5 result was “B (EC1.5 1-25 uM)” and the “Fold Act. (percent maximum fold activation)” value is on record as “A (Fold activation >200%)”.

Take `O=C(Nc1ccccn1)c1cc(N2CCOCC2)cc2[nH]c(-c3ccc(Cl)cc3C(F)(F)F)nc12` [Compound 641]: under setting [1], the EC1.5 entry is reported as “A (EC1.5<1.0 uM)” and the “Fold Act. (percent maximum fold activation)” value is listed as “A (Fold activation >200%)”.

With `c1cncc(CNc2cccc3[nH]c(-c4cccc(N5CCOCC5)c4)nc23)c1` [Compound 619], under setting [1], the EC1.5 result is on record as “B (EC1.5 1-25 uM)” and the “Fold Act. (percent maximum fold activation)” value is reported as “B (Fold Activation <200%)”.

For the compound `O=C(Nc1nccs1)c1cccc2[nH]c(-c3ccc(Cl)nc3)nc12` [Compound 246], the EC1.5 result was “B (EC1.5 1-25 uM)” and the “Fold Act. (percent maximum fold activation)” value is recorded as “B (Fold Activation <200%)”.

Take `CS(=O)(=O)c1cc(Cl)ccc1-c1nc2c(C(=O)Nc3ccccn3)cccc2[nH]1` [Compound 522]: under setting [2], the “Fold Act. (percent maximum fold activation)” value is given as “A (Fold activation >200%)”. Also, under setting [3], the EC1.5 is below 1000 nM.

As for `O=C(Nc1ccncn1)c1cccc2[nH]c(-c3cccc(C(F)(F)F)c3)nc12` [Compound 277], the EC1.5 result is on record as “B (EC1.5 1-25 uM)” and the “Fold Act. (percent maximum fold activation)” value is recorded as “A (Fold activation >200%)”.

`CC(C)(C)c1cccc(-c2nc3c(C(=O)Nc4nccs4)cccc3[nH]2)c1OCCN1CCOCC1` [Compound 587]: under setting [2], the “Fold Act. (percent maximum fold activation)” value is listed as “B (Fold Activation <200%)”. The EC1.5 under setting [3] fell in the range of 1000 to 25000 nM.

Turning to `O=C(Nc1cccnc1)c1cccc2[nH]c(-c3cc(F)ccc3C(F)(F)F)nc12` [Compound 317], the EC1.5 result is recorded as “A (EC1.5<1.0 uM)” and the “Fold Act. (percent maximum fold activation)” value was “A (Fold activation >200%)”.

In the case of `O=C(Nc1cccc(OCC(O)CO)c1)c1cccc2[nH]c(-c3ccc(F)cc3C(F)(F)F)nc12` (stereo not shown) [Compound 705], under setting [1], the EC1.5 result is “A (EC1.5<1.0 uM)” and the “Fold Act. (percent maximum fold activation)” value is reported as “A (Fold activation >200%)”.

Turning to `O=C(Nc1nccs1)c1cccc2[nH]c(-c3ccnn3-c3ccccc3)nc12` [Compound 254], the EC1.5 entry is on record as “A (EC1.5<1.0 uM)” and the “Fold Act. (percent maximum fold activation)” value is listed as “A (Fold activation >200%)”.

Consider `Cc1ncccc1-c1nc2c(C(=O)Nc3cccc(CN4CCOCC4)n3)cccc2[nH]1` [Compound 814, 2-(2-methylpyridin-3-yl)-N-(6-(morpholinomethyl)pyridin-2-yl)-1H-benzo[d]imidazole-4-carboxamide], for which, under setting [1], the EC1.5 entry is given as “A (EC1.5<1.0 uM)” and the “Fold Act. (percent maximum fold activation)” value was “A (Fold activation >200%)”.

With `O=C(Nc1ccc(OCC(O)CO)cc1)c1cccc2[nH]c(-c3ccccc3C(F)(F)F)nc12` (stereo not shown) [Compound 492], the “Fold Act. (percent maximum fold activation)” value under setting [2] is on record as “A (Fold activation >200%)”. The EC1.5 under setting [3] was below 1000 nM.

Turning to `O=C(Nc1ccccn1)c1cncc2[nH]c(-c3ccc(N4CCCC4)cc3C(F)F)nc12` [Compound 801], under setting [1], the EC1.5 result is listed as “A (EC1.5<1.0 uM)” and the “Fold Act. (percent maximum fold activation)” value is “A (Fold activation >200%)”.

Turning to `O=C(Nc1ccccn1)c1cccc2[nH]c(-c3ccc(OC4CCNC4)cc3)nc12` (stereo not shown) [Compound 442], the “Fold Act. (percent maximum fold activation)” value under setting [2] is recorded as “A (Fold activation >200%)”. Under setting [3], the EC1.5 is below 1000 nM.
